Results: publication PMC8119466, “A screen of FDA-approved drugs identifies inhibitors of protein tyrosine phosphatase 4A3 (PTP4A3 or PRL-3)” (Scientific Reports, 2021)
Where a name gives a salt, the structure may show the parent alone. Read-outs that look alike come from different tables or passages of the source.

Assays:
Assay type in all cases: biochemical
recombinant PRL-3 = target: T1, recombinant PRL-3 (Homo sapiens, UniProt O75365); assay: In vitro phosphatase assay (DiFMUP hydrolysis), PRL-3; further: test concentration or dose not given here
T1 construct: 6xHis (N, cleaved yes); made in house; host or cells: E. coli One Shot BL21 Star
T1 sequence (O75365 whole entry): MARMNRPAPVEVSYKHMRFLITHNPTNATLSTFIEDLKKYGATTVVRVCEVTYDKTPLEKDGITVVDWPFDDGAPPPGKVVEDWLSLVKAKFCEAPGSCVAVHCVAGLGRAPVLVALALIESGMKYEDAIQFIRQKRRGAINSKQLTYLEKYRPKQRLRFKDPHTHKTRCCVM

recombinant PRL-1 = target: T2, recombinant PRL-1 (Homo sapiens, UniProt Q93096); assay: In vitro phosphatase assay (DiFMUP hydrolysis), PRL-1; further: test concentration or dose not given here
T2 construct: 6xHis (N, cleaved yes); made in house; host or cells: E. coli One Shot BL21 Star
T2 sequence (Q93096 1-173): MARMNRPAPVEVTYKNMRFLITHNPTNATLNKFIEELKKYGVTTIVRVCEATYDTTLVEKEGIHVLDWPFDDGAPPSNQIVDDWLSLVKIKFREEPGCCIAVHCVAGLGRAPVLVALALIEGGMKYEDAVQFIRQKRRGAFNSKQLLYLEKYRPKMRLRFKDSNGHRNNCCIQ

recombinant PRL-2 = target: T3, recombinant PRL-2 (Homo sapiens, UniProt Q12974); assay: In vitro phosphatase assay (DiFMUP hydrolysis), PRL-2;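 further: PRL-2 activity read as DiFMUP hydrolysis after 20 min at room temperature with drug, enzyme first pre-reduced at 4 °C for 20 min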
T3 construct: 6xHis (N, cleaved yes); made in house; host or cells: E. coli One Shot BL21 Star
T3 sequence (Q12974 1-167): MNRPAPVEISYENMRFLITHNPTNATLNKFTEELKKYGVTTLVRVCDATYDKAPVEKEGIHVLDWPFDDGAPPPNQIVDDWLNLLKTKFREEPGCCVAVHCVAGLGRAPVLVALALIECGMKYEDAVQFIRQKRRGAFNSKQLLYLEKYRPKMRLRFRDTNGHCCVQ

[1] = FDA-approved drug screen, compared to DMSO
[2] = FDA-approved drug screen, activity compared to DMSO

Row | Compound | % Phosphatase Activity (compared to DMSO) PRL-3 (recombinant PRL-3; [1]) [%] | % Phosphatase Activity (compared to DMSO) PRL-1 (recombinant PRL-1; [1]) [%] | % Phosphatase Activity (compared to DMSO) PRL-2 (recombinant PRL-2; [1]) [%] | other results
1 | CC(C)Oc1ccc(-c2nc(-c3cccc4c3CC[C@@H]4NCCO)no2)cc1C#N [Ozanimod (RPC1063)] | 88 | 95 | 101 | 
2 | Cc1cc(C#N)cc(C)c1Oc1nc(Nc2ccc(C#N)cc2)nc(N)c1Br [Etravirine (TMC125)] | 94 | 112 | 133 | 
3 | COc1ccc([C@@H]2Sc3ccccc3N(CCN(C)C)C(=O)[C@@H]2OC(C)=O)cc1 [Diltiazem HCl] | 124 | 94 | 111 | 
4 | CCc1ccc(CCOc2ccc(CC3SC(=O)NC3=O)cc2)nc1 (stereo not drawn) [Pioglitazone] | 80 | 103 | 105 | 
5 | COc1ccnc(C[S+]([O-])c2nc3ccc(OC(F)F)cc3[nH]2)c1OC (stereo not drawn) [Pantoprazole sodium] | 88 | 97 | 98 | 
6 | CC(=O)[C@@]1(O)CC[C@H]2[C@@H]3CCC4=CC(=O)CCC4=C3[C@@H](c3ccc(N(C)C)cc3)C[C@@]21C [Ulipristal] |  |  |  | % Phosphatase Activity (compared to DMSO) PRL-3 (recombinant PRL-3; [2]): 79%; % Phosphatase Activity (compared to DMSO) PRL-1 (recombinant PRL-1; [2]): 95%; % Phosphatase Activity (compared to DMSO) PRL-2 (recombinant PRL-2; [2]): 92%
7 | Isosorbide | 69 | 90 | 89 | 
8 | CCCN1CCCC[C@H]1C(=O)Nc1c(C)cccc1C [Ropivacaine HCl] | 80 | 100 | 110 | 
9 | COc1cc2c(Oc3ccc(NC(=O)C4(C(=O)Nc5ccc(F)cc5)CC4)cc3F)ccnc2cc1OCCCN1CCOCC1 [Foretinib (GSK1363089)] | 97 | 103 | 105 | 
10 | CCN(CC)C(=O)/C(C#N)=C/c1cc(O)c(O)c([N+](=O)[O-])c1 [Entacapone] | 75 | 94 | 87 | 
11 | COc1c(N2C[C@@H]3CCCN[C@@H]3C2)c(F)cc2c(=O)c(C(=O)O)cn(C3CC3)c12 [Moxifloxacin HCl] | 417 | 562 | 594 | 
12 | Oc1cc(O)c(Cl)cn1 [Gimeracil] | 94 | 102 | 97 | 
13 | O=C1O[C@H]([C@@H](O)CO)C(O)=C1O [Vitamin C] |  |  |  | % Phosphatase Activity (compared to DMSO) PRL-3 (recombinant PRL-3; [2]): 75%; % Phosphatase Activity (compared to DMSO) PRL-1 (recombinant PRL-1; [2]): 96%; % Phosphatase Activity (compared to DMSO) PRL-2 (recombinant PRL-2; [2]): 105%
14 | Cc1cccc(C)c1N=C1NCCCS1 [Xylazine HCl] |  |  |  | % Phosphatase Activity (compared to DMSO) PRL-3 (recombinant PRL-3): 91%; % Phosphatase Activity (compared to DMSO) PRL-1 (recombinant PRL-1): 110%; % Phosphatase Activity (compared to DMSO) PRL-2 (recombinant PRL-2): 112%
15 | CC(C)C[C@H](NC(=O)[C@H](Cc1ccccc1)NC(=O)c1cnccn1)B(O)O [Bortezomib (PS-341)] | 93 | 104 | 121 | 
16 | Cc1ccc(-n2nc(C(C)(C)C)cc2NC(=O)NCc2cc(F)ccc2Oc2ccc3c(cnn3CCO)c2)cc1 [Pexmetinib (ARRY-614)] | 117 | 106 | 103 | 
17 | O=C1NCC2(CCN(CCc3ccccc3)CC2)O1 [Fenspiride HCl] | 104 | 90 | 101 | 
18 | Cl.NCCS [Cysteamine HCl] | 70 | 91 | 79 | 
19 | O=c1c(-c2ccc(O)cc2)coc2cc(O)cc(O)c12 [Genistein] | 64 | 95 | 100 | 
20 | OC[C@@H](O)[C@@H](O)[C@H](O)[C@@H](O)CO [Sorbitol] |  |  |  | % Phosphatase Activity (compared to DMSO) PRL-3 (recombinant PRL-3; [2]): 80%; % Phosphatase Activity (compared to DMSO) PRL-1 (recombinant PRL-1; [2]): 105%; % Phosphatase Activity (compared to DMSO) PRL-2 (recombinant PRL-2; [2]): 96%

Row | Compound | % Phosphatase Activity (compared to DMSO) PRL-3 (recombinant PRL-3; [1]) [%] | % Phosphatase Activity (compared to DMSO) PRL-1 (recombinant PRL-1; [1]) [%] | % Phosphatase Activity (compared to DMSO) PRL-2 (recombinant PRL-2; [1]) [%] | other results
21 | CCn1c(=O)c(-c2cc[nH]n2)cc2c(C)nc(N)nc21 [SAR245409 (XL765)] | 74 | 89 | 74 | 
22 | Cc1nnc(NS(=O)(=O)c2ccc(N)cc2)s1 [Sulfamethizole] |  |  |  | % Phosphatase Activity (compared to DMSO) PRL-3 (recombinant PRL-3; [2]): 92%; % Phosphatase Activity (compared to DMSO) PRL-1 (recombinant PRL-1; [2]): 88%; % Phosphatase Activity (compared to DMSO) PRL-2 (recombinant PRL-2; [2]): 99%
23 | C=CC[C@@H]1/C=C(\C)C[C@H](C)C[C@H](OC)[C@H]2O[C@@](O)(C(=O)C(=O)N3CCCC[C@H]3C(=O)O[C@H](/C(C)=C/[C@@H]3CC[C@@H](O)[C@H](OC)C3)[C@H](C)[C@@H](O)CC1=O)[C@H](C)C[C@@H]2OC [Tacrolimus (FK506)] |  |  |  | % Phosphatase Activity (compared to DMSO) PRL-3 (recombinant PRL-3; [2]): 94%; % Phosphatase Activity (compared to DMSO) PRL-1 (recombinant PRL-1; [2]): 90%; % Phosphatase Activity (compared to DMSO) PRL-2 (recombinant PRL-2; [2]): 78%
24 | COC(=O)N/N=C/c1c[n+]([O-])c2ccccc2[n+]1[O-] [Carbadox] | 99 | 96 | 103 | 
25 | O=S(=O)(O)Oc1ccc(C(c2ccc(OS(=O)(=O)O)cc2)c2ccccn2)cc1 [Sodium Picosulfate] |  |  |  | % Phosphatase Activity (compared to DMSO) PRL-3 (recombinant PRL-3; [2]): 81%; % Phosphatase Activity (compared to DMSO) PRL-1 (recombinant PRL-1; [2]): 115%; % Phosphatase Activity (compared to DMSO) PRL-2 (recombinant PRL-2; [2]): 110%
26 | COc1ccccc1OCC(O)CN1CCN(CC(=O)Nc2c(C)cccc2C)CC1.Cl.Cl (stereo not drawn) [Ranolazine 2HCl] | 97 | 107 | 99 | 
27 | COc1cc2nccc(Oc3ccc(NC(=O)Nc4cc(C)on4)c(Cl)c3)c2cc1OC [Tivozanib (AV-951)] |  |  |  | % Phosphatase Activity (compared to DMSO) PRL-3 (recombinant PRL-3; [2]): 75%; % Phosphatase Activity (compared to DMSO) PRL-1 (recombinant PRL-1; [2]): 107%; % Phosphatase Activity (compared to DMSO) PRL-2 (recombinant PRL-2; [2]): 101%
28 | C[C@@H](CN1CC(=O)NC(=O)C1)N1CC(=O)NC(=O)C1.Cl [Dexrazoxane HCl (ICRF-187, ADR-529)] | 79 | 97 | 92 | 
29 | Atosiban Acetate | 90 | 86 | 80 | 
30 | O=C(NC1CCN(CCCCC2(C(=O)NCC(F)(F)F)c3ccccc3-c3ccccc32)CC1)c1ccccc1-c1ccc(C(F)(F)F)cc1 [Lomitapide] | 117 | 124 | 118 | 
31 | CN(C)C(=N)N=C(N)N [Metformin HCl] | 87 | 102 | 78 | 
32 | NC(CO)C(=O)NNCc1ccc(O)c(O)c1O (stereo not drawn) [Benserazide HCl] | 68 | 103 | 99 | 
33 | O=C(O)c1ccccc1Nc1cccc(C(F)(F)F)c1 [Flufenamic acid] | 69 | 81 | 85 | 
34 | O=C(O)CSc1nnc(Br)n1-c1ccc(C2CC2)c2ccccc12 [Lesinurad] | 85 | 90 | 102 | 
35 | Cc1ccc(O)c([C@H](CCN(C(C)C)C(C)C)c2ccccc2)c1 [Tolterodine tartrate] |  |  |  | % Phosphatase Activity (compared to DMSO) PRL-3 (recombinant PRL-3; [2]): 93%; % Phosphatase Activity (compared to DMSO) PRL-1 (recombinant PRL-1; [2]): 98%; % Phosphatase Activity (compared to DMSO) PRL-2 (recombinant PRL-2; [2]): 110%
36 | CCCCCC(=O)O[C@]1(C(C)=O)CC[C@H]2[C@@H]3CCC4=CC(=O)CC[C@]4(C)[C@H]3CC[C@@]21C [Hydroxyprogesterone caproate] | 73 | 91 | 84 | 
37 | CC12CC3CC(C)(C1)CC(N)(C3)C2 [Memantine HCl] | 94 | 83 | 107 | 
38 | NCC1(CC(=O)O)CCCCC1 [Gabapentin] | 87 | 105 | 92 | 
39 | Cn1c([N+](=O)[O-])cnc1COC(N)=O [Ronidazole] | 62 | 86 | 95 | 
40 | C[C@@H]1[C@H](O)[C@@H](C)/C=C/C=C/C=C/C=C/C=C/C=C/C=C/[C@H](O[C@@H]2O[C@H](C)[C@@H](O)[C@H](N)[C@@H]2O)C[C@@H]2O[C@](O)(C[C@@H](O)C[C@@H](O)[C@H](O)CC[C@@H](O)C[C@@H](O)CC(=O)O[C@H]1C)C[C@H](O)[C@H]2C(=O)O [Amphotericin B] | 80 | 102 | 92 | 
